Data set [1] has as its system Influenza A virus (A/Udorn/307/1972(H3N2)).
The test system is the same in data set [2]. This is another data set of the same source.
A short description of data set [3]: Binding affinity to Influenza virus A (A/Udorn/72 (H3N2)) M2 protein at pH 7.5 in presence of KCl by electrophysiology method. More on the design: species or system Influenza A virus (A/udorn/1972(H3N2)).
Data set [4] relates to Influenza A virus (A/Udorn/307/1972(H3N2)). The source holds these as a separate data set.
Data set [5] in a line: Antiviral activity against Influenza A virus (A/WSN/1933(H1N1)) expressing wild-type M2 proton channel infected in MDCK cells assessed as reduction in cytopathic effect after 48 hrs by crystal violet staining-based microscopic analysis. The class given is functional, cell-based. In general terms: Protection from cytopathic effect is a common read-out in antiviral testing.

In the next data set the test system is MDCK. Description: Cytotoxicity against MDCK cells measured after 72 hrs et staining-based microscopic analysis. The class given is cell-based, Canis lupus familiaris. The following applies: dog.
The test system of data set [6] is Influenza A virus (A/California/07/2009(H1N1)). The data set is described as follows: Inhibition of full-length Influenza A virus (A/California/07/2009(H1N1)) M2 proton channel expressed in HEK cells assessed as inhibition of low-pH-dependent inward proton currents at 100 uM and pH 5.5 measured after 30 mins in presence of CaCl2 by electrophysiology method relative to control. The class given is cell-based.

Data set [7] has the same test system. Description: Inhibition of full-length Influenza A virus (A/California/07/2009(H1N1)) M2 proton channel expressed in HEK cells assessed as inhibition of low-pH-dependent inward proton currents at 100 uM and pH 5.5 measured after 3 mins in presence of CaCl2 by electrophysiology method relative to control. The format is cell-based.

Bounds are passed on as bounds.

As to `NC12CC3CC(CC(C3)C1)C2` [AMANTADINE], the Activity in data set [1] worked out at 22 degree; in data set [4], 32 degree. In addition, in data set [2], the -TdeltaS was -1.11 kcal/mol. Further, the Kd (commonly the free concentration of one partner at which half of the binding sites on the other are occupied at equilibrium, for simple one-to-one binding) in data set [3] was determined as 9 µM. Moreover, the IC50 (commonly the midpoint of a concentration-inhibition curve) in data set [5] was “Not Active”. For the same compound, the CC50 (as a rule, the concentration at which the toxic effect on the cells reaches its halfway point) in the data set with MDCK is > 100 µM.

In the case of `CCC1(N)C2CC3CC(C2)CC1C3` (stereo not drawn), in data set [2], the -TdeltaS was -1.38 kcal/mol. In addition, the IC50 result in data set [5] is “Not Active”. Besides, the CC50 in the data set with MDCK is > 100 µM.

For `NC1C2CC3CC(C2)CC1C3` (stereo not drawn), in data set [2], the -TdeltaS was -0.93 kcal/mol. Also, the IC50 result in data set [5] was “Not Active”. In the data set on MDCK, this compound returned a CC50 of 70.5 µM.

Turning to `CCCC1(N)C2CC3CC(C2)CC1C3` (stereo not drawn), the Activity in data set [1] is 22 degree; in data set [4] it was 32 degree. Also, in data set [2], the -TdeltaS was -0.932 kcal/mol. Moreover, the IC50 result in data set [5] was “Not Active”. Also, in the data set with MDCK, the CC50 is > 100 µM.

In the case of `CC1(N)C2CC3CC(C2)CC1C3` (stereo not drawn), in data set [2], the -TdeltaS is -1.51 kcal/mol. Further, in data set [5], the IC50 entry was “Not Active”. Moreover, in the data set on MDCK, the midpoint of cytotoxicity, the CC50, lay at 25.6 µM.

For the compound `CC12CC3CC(CC(C3)C13CCCN3)C2` (stereo not drawn), the -TdeltaS in data set [2] is -3 kcal/mol. For the same compound, in data set [5], the IC50 entry is “Not Active”. The CC50 in the data set on MDCK is > 100 µM.

Turning to `C1CNC2(C1)C1CC3CC(C1)CC2C3` (stereo not drawn), the -TdeltaS in data set [2] was -3.97 kcal/mol. Also, the inhibition (in general, the percentage by which the read-out fell short of the control) came to 5% in data set [6] and 4% in data set [7]. Further, in data set [5], the IC50 entry was “Not Active”. Further, in the data set on MDCK, the CC50 was > 100 µM.

Take `NC1(C23CC4CC(CC(C4)C2)C3)CCCCC1`: in data set [5], the IC50 entry is recorded as “Not Active”. Also, in the data set with MDCK, the CC50 was > 100 µM.

Consider `NC1(C23CC4CC(CC(C4)C2)C3)CCCC1`, for which the inhibition in data set [6] and in data set [7] was 4% each time. Besides, the IC50 entry in data set [5] is “Not Active”. For the same compound, the CC50 with MDCK is > 100 µM.

Take `CN1CCCC12C1CC3CC(C1)CC2C3` (stereo not drawn): the -TdeltaS in data set [2] is -4.46 kcal/mol. Further, in data set [5], the IC50 result is “Not Active”. Also, the CC50 in the data set on MDCK was > 100 µM.

Turning to `CCOC(=O)C1=C[C@@H](OC(CC)CC)[C@H](NC(C)=O)[C@@H](N)C1` [OSELTAMIVIR], the IC50 in data set [5] (Influenza A virus, MDCK, 48 h, read-out: IC50) came out at 0.02 µM.

(Values after ChEMBL document CHEMBL4004820 (J Med Chem, 2017).)
